Tests used:
human recombinant HDAC1 = target: T1, human recombinant HDAC1 (Homo sapiens, UniProt Q13547); assay: In vitro HDAC enzyme activity inhibition assay (HDAC1); format: biochemical; conditions: Fluor de Lys-SIRT1 substrate 10 μM, 30° C., 60 minutes, fluorescence
T1 construct: purchased Enzo Life Sciences, Inc. BML-SE456
Protocol: (§1) In order to confirm the selectivity of the compounds represented by Chemical Formula I of the present invention to HDAC6 through HDAC1 and HDAC6 enzyme activity inhibition experiments, a comparison experiment was performed using the material that has already been developed as a control group.
(§2) HDAC enzyme activity was measured using the HDAC Fluorimetric Drug Discovery Kit (Enzo Life Sciences, Inc., BML-AK511, 516). For the HDAC1 enzyme activity test, human recombinant HDAC1 (BML-SE456) was used as an enzyme source and Fluor de Lys-SIRT1 (BNL-KI177) was used as a substrate. After dispensing 5-fold diluted compounds into a 96-well plate, 0.3 μg of enzyme and 10 μM substrate were added to each well of the plate and allowed to react at 30° C. for 60 minutes. Next, Fluor de Lys Developer II (BML-KI176) was added and reacted for 30 minutes to complete the reaction, and then the fluorescence values (Ex 360, Em 460) were measured using a multi-plate reader (Flexstation 3, Molecular Device). The HDAC6 enzymes were tested using human recombinant HDAC6 (382180) from Calbiochem Inc., according to the same protocol as the HDAC1 enzyme activity test method. With respect to the final result values, respective IC50 values were calculated using GraphPad Prism 4.0 program, and results thereof were summarized in Table 4 below.

human recombinant HDAC6 = target: T2, human recombinant HDAC6 (Homo sapiens, UniProt Q9UBN7); assay: In vitro HDAC enzyme activity inhibition assay (HDAC6); format: biochemical; conditions: for HDAC6 selectivity (fold): HDAC6 over HDAC1; for IC50: same protocol as the HDAC1 test, human recombinant HDAC6 (Calbiochem)
T2 construct: purchased Calbiochem Inc. 382180
T2 sequence (Q9UBN7 1-1215): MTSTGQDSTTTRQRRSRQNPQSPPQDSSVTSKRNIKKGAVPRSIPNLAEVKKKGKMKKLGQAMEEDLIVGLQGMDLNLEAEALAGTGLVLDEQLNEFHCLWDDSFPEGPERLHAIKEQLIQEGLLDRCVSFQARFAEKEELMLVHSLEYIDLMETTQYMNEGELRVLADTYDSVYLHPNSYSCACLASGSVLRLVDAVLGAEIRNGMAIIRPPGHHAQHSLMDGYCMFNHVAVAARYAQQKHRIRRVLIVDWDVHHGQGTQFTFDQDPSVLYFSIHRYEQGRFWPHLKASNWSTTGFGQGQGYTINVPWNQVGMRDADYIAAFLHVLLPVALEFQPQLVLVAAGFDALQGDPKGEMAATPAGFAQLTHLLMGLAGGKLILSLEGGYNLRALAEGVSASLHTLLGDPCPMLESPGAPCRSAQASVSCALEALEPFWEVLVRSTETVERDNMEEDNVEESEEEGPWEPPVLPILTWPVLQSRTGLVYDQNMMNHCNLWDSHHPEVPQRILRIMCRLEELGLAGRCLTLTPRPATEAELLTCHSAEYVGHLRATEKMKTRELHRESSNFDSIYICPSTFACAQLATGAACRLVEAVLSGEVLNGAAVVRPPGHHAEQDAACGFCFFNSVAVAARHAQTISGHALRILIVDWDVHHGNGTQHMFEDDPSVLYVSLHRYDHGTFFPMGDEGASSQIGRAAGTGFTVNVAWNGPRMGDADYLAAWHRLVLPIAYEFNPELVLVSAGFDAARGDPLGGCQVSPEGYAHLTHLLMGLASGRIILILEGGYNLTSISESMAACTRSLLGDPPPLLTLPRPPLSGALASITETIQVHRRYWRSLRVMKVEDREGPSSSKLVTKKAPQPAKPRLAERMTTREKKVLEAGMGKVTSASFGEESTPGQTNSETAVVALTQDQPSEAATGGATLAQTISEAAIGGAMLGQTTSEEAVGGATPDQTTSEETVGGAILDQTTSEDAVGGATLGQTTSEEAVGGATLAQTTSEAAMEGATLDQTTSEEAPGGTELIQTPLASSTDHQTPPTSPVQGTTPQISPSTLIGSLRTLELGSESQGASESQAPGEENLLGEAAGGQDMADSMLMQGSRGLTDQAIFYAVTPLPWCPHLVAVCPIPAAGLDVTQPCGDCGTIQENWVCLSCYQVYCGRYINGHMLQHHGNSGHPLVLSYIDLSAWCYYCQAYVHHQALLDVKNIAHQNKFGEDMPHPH
Protocol: as §1, §2

T1 sequence (Q13547 whole entry): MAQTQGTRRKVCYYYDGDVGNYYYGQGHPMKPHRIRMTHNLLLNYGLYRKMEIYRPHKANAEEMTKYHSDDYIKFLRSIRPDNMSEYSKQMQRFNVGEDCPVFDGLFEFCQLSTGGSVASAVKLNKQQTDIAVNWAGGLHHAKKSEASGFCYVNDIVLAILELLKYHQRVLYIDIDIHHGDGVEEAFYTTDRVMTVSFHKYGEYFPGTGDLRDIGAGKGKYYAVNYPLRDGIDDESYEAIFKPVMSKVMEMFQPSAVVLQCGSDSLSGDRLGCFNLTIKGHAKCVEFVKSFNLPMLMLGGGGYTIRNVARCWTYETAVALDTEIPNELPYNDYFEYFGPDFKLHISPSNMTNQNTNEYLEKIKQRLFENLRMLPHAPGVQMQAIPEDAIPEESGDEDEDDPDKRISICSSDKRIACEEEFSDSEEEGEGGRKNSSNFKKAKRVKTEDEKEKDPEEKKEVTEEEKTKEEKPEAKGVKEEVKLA

Row | Structure (SMILES) | IC50 (human recombinant HDAC1) [nM] | HDAC6 selectivity (fold) (human recombinant HDAC6) | IC50 (human recombinant HDAC6) [nM]
1 | CC(CO)N1CCC(S(=O)(=O)N(Cc2cn3ccc(-c4nnc(C(F)F)o4)cc3n2)c2cccc(F)c2)CC1 (stereo not drawn) [Compound 4239, N-((7-(5-(difluoromethyl)-1,3,4-oxadiazol-2-yl)imidazo[1,2-a]pyridin-2-yl)methyl)-N-(3-fluorophenyl)-1-(1-hydroxypropan-2-yl)piperidine-4-sulfonamide] | > 50000 | 635 | 78.8
2 | CC(=O)N1CCC(S(=O)(=O)N(Cc2cn3ccc(-c4nnc(C(F)F)o4)cc3n2)c2cccc(F)c2)CC1 [Compound 4245, 1-acetyl-N-((7-(5-(difluoromethyl)-1,3,4-oxadiazol-2-yl)imidazo[1,2-a]pyridin-2-yl)methyl)-N-(3-fluorophenyl)piperidine-4-sulfonamide] | > 50000 | 1055 | 47.4
3 | CCC(=O)N1CCC(S(=O)(=O)N(Cc2cn3ccc(-c4nnc(C(F)F)o4)cc3n2)c2cccc(F)c2)CC1 [Compound 4246, N-((7-(5-(difluoromethyl)-1,3,4-oxadiazol-2-yl)imidazo[1,2-a]pyridin-2-yl)methyl)-N-(3-fluorophenyl)-1-propionylpiperidine-4-sulfonamide] | > 50000 | 660 | 75.8
4 | O=C(CO)N1CCC(S(=O)(=O)N(Cc2cn3ccc(-c4nnc(C(F)F)o4)cc3n2)c2cccc(F)c2)CC1 [Compound 4247, N-((7-(5-(difluoromethyl)-1,3,4-oxadiazol-2-yl)imidazo[1,2-a]pyridin-2-yl)methyl)-N-(3-fluorophenyl)-1-(2-hydroxyacetyl)piperidine-4-sulfonamide] | > 50000 | 980 | 51
5 | O=C(C1COC1)N1CCC(S(=O)(=O)N(Cc2cn3ccc(-c4nnc(C(F)F)o4)cc3n2)c2cccc(F)c2)CC1 [Compound 4249, N-((7-(5-(difluoromethyl)-1,3,4-oxadiazol-2-yl)imidazo[1,2-a]pyridin-2-yl)methyl)-N-(3-fluorophenyl)-1-(oxetan-3-carbonyl)piperidine-4-sulfonamide] | > 50000 | 684 | 73.1
6 | O=C(N1CCC(S(=O)(=O)N(Cc2cn3ccc(-c4nnc(C(F)F)o4)cc3n2)c2cccc(F)c2)CC1)C(F)(F)F [Compound 4250, N-((7-(5-(difluoromethyl)-1,3,4-oxadiazol-2-yl)imidazo[1,2-a]pyridin-2-yl)methyl)-N-(3-fluorophenyl)-1-(2,2,2-trifluoroacetyl)piperidine-4-sulfonamide] | > 50000 | 431 | 116
7 | CS(=O)(=O)N1CCC(S(=O)(=O)N(Cc2cn3ccc(-c4nnc(C(F)F)o4)cc3n2)c2cccc(F)c2)CC1 [Compound 4251, N-((7-(5-(difluoromethyl)-1,3,4-oxadiazol-2-yl)imidazo[1,2-a]pyridin-2-yl)methyl)-N-(3-fluorophenyl)-1-(methylsulfonyl)piperidine-4-sulfonamide] | > 50000 | 525 | 95.2
8 | COC(=O)N1CCC(S(=O)(=O)N(Cc2cn3ccc(-c4nnc(C(F)F)o4)cc3n2)c2cccc(F)c2)CC1 [Compound 4252, methyl 4-(N-((7-(5-(difluoromethyl)-1,3,4-oxadiazol-2-yl)imidazo[1,2-a]pyridin-2-yl)methyl)-N-(3-fluorophenyl)sulfamoyl)piperidine-1-carboxylate] | > 50000 | 455 | 110

Second part, the compound after the results:

Row | IC50 (human recombinant HDAC1) [nM] | HDAC6 selectivity (fold) (human recombinant HDAC6) | IC50 (human recombinant HDAC6) [nM] | Structure (SMILES)
9 | > 50000 | 678 | 73.8 | CN1CCC(S(=O)(=O)N(Cc2cn3ccc(-c4nnc(C(F)F)o4)cc3n2)c2cccc(F)c2)CC1 [Compound 4236, N-((7-(5-(difluoromethyl)-1,3,4-oxadiazol-2-yl)imidazo[1,2-a]pyridin-2-yl)methyl)-N-(3-fluorophenyl)-1-methylpiperidine-4-sulfonamide]
10 | > 50000 | 821 | 60.9 | CCN1CCC(S(=O)(=O)N(Cc2cn3ccc(-c4nnc(C(F)F)o4)cc3n2)c2cccc(F)c2)CC1 [Compound 4237, N-((7-(5-(difluoromethyl)-1,3,4-oxadiazol-2-yl)imidazo[1,2-a]pyridin-2-yl)methyl)-1-ethyl-N-(3-fluorophenyl)-piperidine-4-sulfonamide]
11 | > 50000 | 653 | 76.6 | CC(C)N1CCC(S(=O)(=O)N(Cc2cn3ccc(-c4nnc(C(F)F)o4)cc3n2)c2cccc(F)c2)CC1 [Compound 4238, N-((7-(5-(difluoromethyl)-1,3,4-oxadiazol-2-yl)imidazo[1,2-a]pyridin-2-yl)methyl)-N-(3-fluorophenyl)-1-isopropylpiperidine-4-sulfonamide]
12 | > 50000 | 936 | 53.4 | O=S(=O)(C1CCN(C2CCC2)CC1)N(Cc1cn2ccc(-c3nnc(C(F)F)o3)cc2n1)c1cccc(F)c1 [Compound 4240, 1-cyclobutyl-N-((7-(5-(difluoromethyl)-1,3,4-oxadiazol-2-yl)imidazo[1,2-a]pyridin-2-yl)methyl)-N-(3-fluorophenyl)piperidine-4-sulfonamide]
13 | > 50000 | 715 | 69.9 | O=S(=O)(C1CCN(C2COC2)CC1)N(Cc1cn2ccc(-c3nnc(C(F)F)o3)cc2n1)c1cccc(F)c1 [Compound 4241]
14 | > 50000 | 800 | 62.5 | O=S(=O)(C1CCN(C2CCCCC2)CC1)N(Cc1cn2ccc(-c3nnc(C(F)F)o3)cc2n1)c1cccc(F)c1 [Compound 4242, 1-cyclohexyl-N-((7-(5-(difluoromethyl)-1,3,4-oxadiazol-2-yl)imidazo[1,2-a]pyridin-2-yl)methyl)-N-(3-fluorophenyl)piperidine-4-sulfonamide]
15 | > 50000 | 530 | 94.3 | O=S(=O)(C1CCN(C2CCOCC2)CC1)N(Cc1cn2ccc(-c3nnc(C(F)F)o3)cc2n1)c1cccc(F)c1 [Compound 4243, N-((7-(5-(difluoromethyl)-1,3,4-oxadiazol-2-yl)imidazo[1,2-a]pyridin-2-yl)methyl)-N-(3-fluorophenyl)-1-(tetrahydro-2H-pyran-4-yl)piperidine-4-sulfonamide]
16 | > 50000 | 525 | 95.3 | O=S(=O)(C1CCN(C2CCC(F)(F)CC2)CC1)N(Cc1cn2ccc(-c3nnc(C(F)F)o3)cc2n1)c1cccc(F)c1 [Compound 4244, 1-(4,4-difluorocyclohexyl)-N-((7-(5-(difluoromethyl)-1,3,4-oxadiazol-2-yl)imidazo[1,2-a]pyridin-2-yl)methyl)-N-(3-fluorophenyl)piperidine-4-sulfonamide]
17 | > 50000 | 542 | 92.2 | O=C(C1CCC1)N1CCC(S(=O)(=O)N(Cc2cn3ccc(-c4nnc(C(F)F)o4)cc3n2)c2cccc(F)c2)CC1 [Compound 4248, 1-(cyclobutanecarbonyl)-N-((7-(5-(difluoromethyl)-1,3,4-oxadiazol-2-yl)imidazo[1,2-a]pyridine-2-yl)methyl)-N-(3-fluorophenyl)piperidine-4-sulfonamide]
